In US11951171B2, “Polypeptide EXP and its drug delivery system as well as extracellular vesicle extraction” (TIANJIN MEDICAL UNIVERSITY, priority 2019, dated 2024):

Assays:
C2C12 cells = assay: Binding stability: intracellular co-localization of peptides with exosomes (confocal microscopy, FRET); format: cell-based, murine
Experimental: The intracellular co-localization of CP05 and EXP with exosomes was examined with confocal microscopy at different timepoints. FAM-labeled CP05 and EXP were incubated with DiI-labeled exosomes and then added into C2C12 cells.
The meanings of the signs in the figure are as follows: DAPI means staining result for nuclei by DAPI, Peptide(488,520) refers to the excitation and emission wavelength of FAM-labeled CP05 and EXP; EXO(Dil)(540,620) refers to the excitation and emission wavelength for DiI-labeled exosomes; Merge is the superposition of above three staining results; FRET means fluorescence resonance energy transfer. Optical energy resonance transfer is an energy transfer phenomenon between two fluorescent molecules that are very close to each other. When the emission spectrum of the donor fluorescent molecule overlaps with the absorption spectrum of the acceptor fluorescent molecule, and the distance between two molecules is within the range of 10 nm, a […] energy transfer occurs. In the figure, the FAM-Peptide is the donor fluorescent molecule and DiI-EXO is the acceptor fluorescent molecule. […] EXOCP05 is the staining result of exosomes combined with CP05 sequence which is recorded in the prior art Chinese Patent No. CN201510520565.7, and EXOEXP refers to the staining result of the combination of EXP of the present invention and exosomes. […]

[1] = system: MVmyo (microvesicles derived from differentiated muscle cells); assay: Binding efficiency of EXP and CP05 to microvesicles (flow cytometer); settings: flow cytometer (FIG. 8C)
Source text: (A)Western blot is used to identify and compare the expression of biomarker proteins of MV and exosomes. It's shown by the results that Tetraspanin family proteins like CD81, CD9 and CD63 were expressed in MV, but mitochondrial marker protein Cytochrome C was not expressed. (B) particle size distribution of MV from different sources were detected by Nanosight. MVmyot means microvesicles derived from differentiated muscle cells; MVurine means microvesicles derived from urine. (C) Examination of the binding efficiency of EXP and CP05 to MVmyo was detected by flow cytometer. […] (E)Western blot was used to detect the recovery of dystrophin protein expression after MVEXPPMO treatment. […]

CD81 = molecular target: T1, CD81 (Mus musculus, UniProt P35762); assay: EXP target detection by co-immunoprecipitation, silver staining and Western blot; format: binding; settings: Flag-tagged peptide on anti-flag beads, C2C12 lysate; band about 45 kD and 25 kD
T1 construct: endogenous in cells; host or cells: C2C12 cells (lysate)
T1 sequence (P35762 1-236): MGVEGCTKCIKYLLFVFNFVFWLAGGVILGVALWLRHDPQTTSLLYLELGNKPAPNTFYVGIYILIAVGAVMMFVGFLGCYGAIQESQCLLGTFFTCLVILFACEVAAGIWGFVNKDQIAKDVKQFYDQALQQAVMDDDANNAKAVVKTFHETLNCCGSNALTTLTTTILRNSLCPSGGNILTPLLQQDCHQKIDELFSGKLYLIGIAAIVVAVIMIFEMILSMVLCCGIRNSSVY
Experimental: (§1) (A) Silver staining and Western blot were used to detect the interest proteins band obtained by co-immunoprecipitation. Flag-tagged CP05 or EXP was incubated with anti-flag coated beads, and followed by co-incubation with cell lysates after removing the free peptides which were unconjugated with beads. The specific enriched proteins in the cell protein lysate were fished by using the polypeptide. Then the size distribution of the fishing strip was detected by silver staining, and the expression of different Tetraspanin family proteins in the fishing strip was detected by Western blot. […] (B)Immunoprecipitation was used to catch the target of EXP. The results are the same as above. […]

CD63 = molecular target: T2, CD63 (Mus musculus, UniProt P41731); assay: as above; format: binding; settings: Flag-tagged peptide on anti-flag beads, C2C12 lysate; band about 45 kD and 25 kD
T2 construct: endogenous in cells; host or cells: C2C12 cells (lysate)
T2 sequence (P41731 1-238): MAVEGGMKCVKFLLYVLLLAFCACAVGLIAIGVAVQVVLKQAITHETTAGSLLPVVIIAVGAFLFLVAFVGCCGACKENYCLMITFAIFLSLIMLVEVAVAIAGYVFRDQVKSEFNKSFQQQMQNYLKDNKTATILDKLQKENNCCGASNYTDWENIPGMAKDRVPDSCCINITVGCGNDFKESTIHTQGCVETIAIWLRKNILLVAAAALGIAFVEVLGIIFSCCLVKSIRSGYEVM
Experimental: as §1

protein band fished from cell lysate, confirmed by Western blot as CD81 (CD81): distinct protein bands
protein band fished from cell lysate, confirmed by Western blot as CD63 (CD63): distinct protein bands
Sequence: CRHKMWTVKSRL (EXP)
co-localization with EXO in cells at 48 hours (C2C12 cells): still detectable
binding efficiency to MVmyot compared with CP05 [1]: significantly higher than that of CP05
